Measurements taken from patent EP0912534B1, “MUSCARINIC ANTAGONISTS” (SCHERING CORPORATION, priority 1996, dated 1998).

How the values were obtained:
[1] = molecular target: T1, cloned human m2 muscarinic receptor (Homo sapiens, UniProt P08172); assay: Muscarinic binding activity (3H-QNB displacement), m2; conditions: Ki m2, membranes of transfected CHO cells
T1 sequence (P08172 1-466): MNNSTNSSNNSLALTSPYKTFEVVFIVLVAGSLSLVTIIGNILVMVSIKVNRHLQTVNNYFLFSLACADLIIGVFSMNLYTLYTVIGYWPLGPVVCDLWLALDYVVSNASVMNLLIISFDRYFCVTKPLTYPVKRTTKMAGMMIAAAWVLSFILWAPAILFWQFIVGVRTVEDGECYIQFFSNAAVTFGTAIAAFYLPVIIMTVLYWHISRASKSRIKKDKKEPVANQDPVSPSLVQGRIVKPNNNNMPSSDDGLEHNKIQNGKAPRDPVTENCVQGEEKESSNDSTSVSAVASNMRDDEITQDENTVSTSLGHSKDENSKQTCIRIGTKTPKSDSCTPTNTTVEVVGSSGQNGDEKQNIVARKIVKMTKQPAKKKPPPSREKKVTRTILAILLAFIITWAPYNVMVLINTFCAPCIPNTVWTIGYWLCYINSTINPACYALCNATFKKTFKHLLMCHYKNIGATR

[2] = system: Release of Acetyl Choline (ACh) from Striatum; assay: Microdialysis: release of acetylcholine from striatum of conscious rats; type: in vivo, male Sprague-Dawley Rats; conditions: 10 mg/kg peritoneal, 3 rats, Isomer B
Method: The skull was exposed and drilled through to the dura at a point 0.2 mm anterior and 3.0 mm lateral to the bregma. At these coordinates, a guide cannula was positioned at the outer edge of the dura through the drilled opening, lowered perpendicularly to a depth of 2.5 mm, and permanently secured with dental cement to bone screws. Following the surgery, rats were given ampicillin (40 mg/kg, ip) and individually housed in modified cages. A recovery period of approximately 3 to 7 days was allowed before the microdialysis procedure was undertaken. • Microdialysis: All of the equipment and instrumentation used to conduct in vivo microdialysis was obtained from Bioanalytical Systems, Inc. (BAS). The microdialysis procedure required the insertion through the guide cannula of a thin, needle-like perfusable probe (CMA/12.3 mm x 0.5 mm) to a depth of 3 mm in striatum beyond the end of the guide. The probe was connected beforehand with tubing to a microinjection pump (CMA-/100). Rats were collared and tethered, and, following probe insertion, were placed in a large clear plexiglass bowl with litter material and access to food and water. The probe was perfused at 2 µl/min with Ringer's buffer (NaCl 147 mM; KCI 3.0 mM; CaCl2 1.2 mM; MgCl2 1.0 mM) containing 5.5 mM glucose, 0.2 mM L-ascorbate, and 1 µM neostigmine bromide at pH 7.4. To achieve stable baseline readings, microdialysis was allowed to proceed for 90 minutes prior to the collection of fractions. Fractions (20 µl) were obtained at 10-minute intervals over a 3-hour period using a refrigerated collector (CMA/170 or 200). Following the collection of four to five baseline fractions, the drug or combination of drugs to be tested was administered to the animal. Once collection was complete, each rat was autopsied to determine how accurately the probe was placed. • Acetylcholine (ACh) analysis: The concentration of ACh in collected samples of microdialysate was determined using HPLC/electrochemical detection. Samples were auto-injected (Waters 712 Refrigerated Sample Processor) onto a polymeric analytical HPLC column (BAS, MF-6150) and eluted with 50 mM Na2HPO4, pH 8.5. To prevent bacterial growth, Kathon CG reagent (0.005%) (BAS) was included in the mobile phase. Eluate from the analytical column, containing separated ACh and choline, was then immediately passed through an immobilized enzyme reactor cartridge (BAS, MF-6151) coupled to the column outlet. The reactor contained both acetylcholinesterase and choline oxidase covalently bound to a polymeric backbone. […] Data acquisition was carried out using an IBM Model 70 computer equipped with a microchannel IEEE board. Integration and quantification of peaks were accomplished using "Maxima" chromatography software (Waters Corporation). Total run time per sample was 11 minutes at a flow rate of 1 ml/min. Retention times for acetylcholine and choline were 6.5 and 7.8 minutes respectively. To monitor and correct for possible changes in detector sensitivity during chromatography, ACh standards were included at the beginning, middle and end of each sample queue.
Increases in ACh levels are consistent with presynaptic m2 receptor antagonism.

[3] = molecular target: T2, cloned human m1 muscarinic receptor (Homo sapiens, UniProt P11229); assay: Muscarinic binding activity (3H-QNB displacement), m1; conditions: Ki m1, membranes of transfected CHO cells
T2 sequence (P11229 1-460): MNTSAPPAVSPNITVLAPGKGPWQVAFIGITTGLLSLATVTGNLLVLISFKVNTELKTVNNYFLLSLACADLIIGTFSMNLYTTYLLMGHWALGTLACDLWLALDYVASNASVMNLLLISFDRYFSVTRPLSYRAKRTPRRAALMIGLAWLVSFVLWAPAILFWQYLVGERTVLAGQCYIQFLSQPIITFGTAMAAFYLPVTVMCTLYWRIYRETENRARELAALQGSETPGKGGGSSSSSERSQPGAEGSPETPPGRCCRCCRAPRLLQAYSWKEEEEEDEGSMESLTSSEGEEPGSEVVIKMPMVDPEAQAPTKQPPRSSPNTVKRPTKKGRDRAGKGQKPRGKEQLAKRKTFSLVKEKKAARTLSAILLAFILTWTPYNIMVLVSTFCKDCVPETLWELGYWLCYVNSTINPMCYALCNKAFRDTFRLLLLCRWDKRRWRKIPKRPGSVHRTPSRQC

[4] = molecular target: T3, cloned human m4 muscarinic receptor (Homo sapiens, UniProt P08173); assay: Muscarinic binding activity (3H-QNB displacement), m4; conditions: Ki m4, membranes of transfected CHO cells
T3 sequence (P08173 1-479): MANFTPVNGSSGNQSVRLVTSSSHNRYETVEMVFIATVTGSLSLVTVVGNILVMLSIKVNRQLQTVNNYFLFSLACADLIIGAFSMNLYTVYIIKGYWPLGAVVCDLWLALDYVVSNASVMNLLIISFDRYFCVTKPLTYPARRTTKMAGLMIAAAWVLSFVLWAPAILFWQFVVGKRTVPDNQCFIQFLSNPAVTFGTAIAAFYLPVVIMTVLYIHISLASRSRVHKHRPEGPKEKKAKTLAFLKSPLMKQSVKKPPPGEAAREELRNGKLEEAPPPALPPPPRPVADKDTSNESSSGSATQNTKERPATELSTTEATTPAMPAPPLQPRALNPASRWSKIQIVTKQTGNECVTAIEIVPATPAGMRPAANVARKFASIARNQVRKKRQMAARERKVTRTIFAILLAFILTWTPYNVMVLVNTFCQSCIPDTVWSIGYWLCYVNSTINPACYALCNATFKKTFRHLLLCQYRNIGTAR

COc1ccc(S(=O)(=O)c2ccc3c(c2)CCC3N2CCN(C3CCCCC3)C[C@H]2C)cc1 (single isomer, unassigned) [Compound 15]
Ki [1]: 110 pM | Mean % of baseline ([2]; sample collection time 20 min (control, first baseline, before injection)): 98.61 % of baseline | Mean % of baseline ([2]; sample collection time 30 min (control, second baseline, before injection)): 93.87 % of baseline | Mean % of baseline ([2]; sample collection time 40 min (control, third baseline, before injection)): 102.42 % of baseline | Mean % of baseline ([2]; sample collection time 50 min (compounds injected at 50 minutes)): 103.86 % of baseline | Mean % of baseline ([2]; sample collection time 60 min, injected at 50 min): 102.14 % of baseline | Mean % of baseline ([2]; sample collection time 70 min, injected at 50 min): 175.31 % of baseline | Mean % of baseline ([2]; sample collection time 80 min, injected at 50 min): 278.67 % of baseline | Mean % of baseline ([2]; sample collection time 90 min, injected at 50 min): 266.94 % of baseline | Mean % of baseline ([2]; sample collection time 100 min, injected at 50 min): 245.19 % of baseline | Mean % of baseline ([2]; sample collection time 110 min, injected at 50 min): 217.34 % of baseline | Mean % of baseline ([2]; sample collection time 120 min, injected at 50 min): 222.39 % of baseline | Mean % of baseline ([2]; sample collection time 130 min, injected at 50 min): 205.69 % of baseline | Mean % of baseline ([2]; sample collection time 140 min, injected at 50 min): 188.49 % of baseline | Mean % of baseline ([2]; sample collection time 150 min, injected at 50 min): 189.79 % of baseline | Mean % of baseline ([2]; sample collection time 160 min, injected at 50 min): 184.27 % of baseline | Mean % of baseline ([2]; sample collection time 170 min, injected at 50 min): 189.27 % of baseline | Mean % of baseline ([2]; sample collection time 180 min, injected at 50 min): 189.86 % of baseline | Ki [3]: 1230 pM | Ki [4]: 270 pM
